Data published in patent publication US6635437B2, “Compounds, compositions and methods for generating chemiluminescence with phosphatase enzymes” (Lumigen, Inc., priority 1996, dated 2003).

Assays:
[1] = tested on: alkaline phosphatase (AP); assay: Chemiluminescent detection of alkaline phosphatase with acridan phosphate and surfactant enhancer; type: biochemical; details: 25° C.; for S/B (ratio of maximum light intensity to light intensity in the absence of enzyme): 0.33 mM 1, 0.01 mg/mL Enhancer A
acid phosphatase (AcP) [2] = assay: Chemiluminescent detection of acid phosphatase and inhibition by tartrate; type: biochemical; details: 0.33 mM 1, 0.1 M tris pH 7, 0.01-0.1% Enhancer A; ambient temperature
Description: The quenching of emission was not due to a reduction of the pH since addition of 10 μL of citrate buffer caused only a 25% reduction in light intensity.

acid phosphatase (AcP) [3] = assay: Chemiluminescent detection of AcP by pH change; type: biochemical; details: 0.33 mM 1, tris pH 7.0, 0.1% BSA, 0.01% Enhancer A, 3 μL AcP, 8 min; 1 N NaOH injected, integrated 4 min
Description: An alternate way to detect the light emitted by reaction of AcP with 1 is to incubate a reagent composition containing 1 and enhancer with AcP at a first pH and then rapidly raise the pH by injecting a solution of a strong base to cause a burst of light emission. A reagent composition (100 μL) comprising 0.33 mM acridan phosphate 1 in 0.1 M tris buffer, pH 7.0, 0.1% BSA and 0.01% Enhancer A was reacted with 3 μL of AcP (Sigma AcP LIN-TROL, reconstituted to 2.0 mL, 83 U/L) for 8 min at ambient temperature in a test tube. A solution of 1 N NaOH (50 μL) was injected and light intensity integrated for 4 min.

AP-labeled antibody [4] = assay: Western blot assay of human transferrin using PVDF membrane
Source text: The chemiluminescent reaction of the present invention provides a particularly effective reagent for detection of AP conjugates on polyvinylidene difluoride (PVDF) membranes, nylon membranes and on nitrocellulose filters and membranes.
provides an intense luminescence which rises to a maximum level nearly instantly and maintains essentially constant intensity for at least 2 days. Detection on film and optimizing image intensity are thus particularly convenient.
Compositions of the present invention were used to detect and quantify a protein, human transferrin in a Western blot with an AP-labeled antibody on a polyvinylidene difluoride (PVDF) membrane. Dilutions of transferrin containing from 5000, 1000, 180, 30 and 5 pg, respectively, of protein were electrophoresed and transferred to PVDF membranes (Millipore, Bedford, Mass.). The transferrin bands were blocked with and then reacted sequentially with goat anti-human transferrin and rabbit anti-goat-AP conjugate. The membranes were soaked briefly with reagents comprising 0.2 M 221 buffer, pH 9.6 containing 0.88 mM MgCl2, 0.66 mM acridan phosphate 1 and 0.1 to 1 mg/mL of Enhancer A. The membranes were placed between transparent plastic sheets and exposed to X-ray film. […] The light produced using these compositions with varying amounts of the enhancer led to intense emission which could be imaged for at least 2 weeks. […]

AP-labeled antibody [5] = assay: Western blot using nitrocellulose membrane; details: 0.33 mM 1, pH 9.6, 0.5 mg/mL Enhancer A
Description: A Western blot assay according to the procedures in Example 27 was performed using nitrocellulose membrane as the solid phase. Transferrin standards in the range of 5000-30 pg were used.

[6] = tested on: alkaline phosphatase (AP); assay: Chemiluminescent detection of alkaline phosphatase with acridan phosphate and cationic aromatic compound (CAC); type: biochemical; details: for S at 36 min (plateau intensity): 21 mM CAC in DMSO diluted 1:1000 into compound 5 in 0.1 M tris pH 8.8, 4×10^−16 mol AP, room temperature
AP-labeled antibody [7] = assay: Western blot assay with compound 5 and lucigenin; details: 0.66 mM 5, 64 μM lucigenin, 0.1 M tris pH 8.8; PVDF membrane
Source text: A composition of the present invention were used to detect and quantify a protein, human transferrin in a Western blot with an AP-labeled antibody on a polyvinylidene difluoride (PVDF) membrane. Dilutions of transferrin containing from 5000, 1000, 180, 30 and 5 pg, respectively, of protein were electrophoresed and transferred to PVDF membranes (Millipore, Bedford, Mass.). The transferrin bands were blocked with and then reacted sequentially with goat anti-human transferrin and rabbit anti-goat-AP conjugate. The membranes were soaked briefly with reagents comprising 0.1 M tris buffer, pH 8.8 containing 0.88 mM MgCl2, 0.66 mM compound 5 and 64 μM lucigenin. The membranes were placed between transparent plastic sheets and exposed to X-ray film. The bands for human transferrin were detected after 10 min with a 2.5 min exposure. The light produced using this composition led to intense emission which could be imaged for several hours.
Similar results were obtained using nitrocellulose blotting membrane instead of PVDF membrane.

[8] = 0.66 mM 5, 0.2 M 2-methyl-2-amino-1-propanol pH 9.6, 0.5 mg/mL Enhancer A, 10^−13 mol AP

With `CN1c2ccccc2C(=C(Oc2ccccc2)OP(=O)([O-])[O-])c2ccccc21.[Na+].[Na+]` [Compound 1, 9-(Phenoxyphosphoryloxymethylidene)-10-methylacridan, disodium salt] the “time to maximum chemiluminescence intensity” value ([1]; 0.33 mM 1, 0.1 M tris pH 8.5, 0.88 mM Mg, 0.01 mg/mL Enhancer A, 10^−13 mol AP) was 2 min, the “chemiluminescence on reaction with AP” value ([1]; composition of Example 14 (0.1 M tris pH 8.5, Enhancer A), AP) was “easily measurable blue chemiluminescence” and the “S/B (ratio of maximum light intensity to light intensity in the absence of enzyme)” value ([1]; pH 7.0, tris, 8×10^−16 mol AP) was 37. For the same compound, the “S/B (ratio of maximum light intensity to light intensity in the absence of enzyme)” value ([1]; pH 7.5, tris, 8×10^−16 mol AP) was 144, the “S/B (ratio of maximum light intensity to light intensity in the absence of enzyme)” value ([1]; pH 8.0, tris, 8×10^−16 mol AP) was 273 and the “S/B (ratio of maximum light intensity to light intensity in the absence of enzyme)” value ([1]; pH 8.5, tris, 8×10^−16 mol AP) was 280. The “S/B (ratio of maximum light intensity to light intensity in the absence of enzyme)” value ([1]; pH 9.0, 221 buffer, 8×10^−16 mol AP) was 200, the “S/B (ratio of maximum light intensity to light intensity in the absence of enzyme)” value ([1]; pH 9.0, tris, 8×10^−16 mol AP) was 195 and the “S/B (ratio of maximum light intensity to light intensity in the absence of enzyme)” value ([1]; pH 9.5, 221 buffer, 8×10^−16 mol AP) was 87. For the same compound, the “S/B (ratio of maximum light intensity to light intensity in the absence of enzyme)” value ([1]; pH 10.0, 221 buffer, 8×10^−16 mol AP) was 13, the “S/B (ratio of maximum light intensity to light intensity in the absence of enzyme)” value ([1]; pH 10.5, 221 buffer, 8×10^−16 mol AP) was 1.3 and the “time to maximum chemiluminescence intensity” value ([1]; reagent composition of Example 14, 8×10^−16 mol AP) was “ca. 2 min”. The “time course of chemiluminescence with AcP” value (acid phosphatase (AcP) [2]) was “reached maximum intensity nearly instantaneously and remained nearly constant for several minutes”, the “light intensity relative to reagent blank” value (acid phosphatase (AcP) [3]) was “three times the reagent blank” and the “time for which emission could be imaged” value (AP-labeled antibody [4]; 0.66 mM 1, 0.2 M 221 buffer pH 9.6, 0.1 to 1 mg/mL Enhancer A, PVDF) was “at least 2 weeks”. The “time for which luminescence maintains essentially constant intensity” value (AP-labeled antibody [4]; antibody-AP conjugate on PVDF membrane) was “at least 2 days”, the “period over which detection could be performed” value (AP-labeled antibody [5]) was “over several hours” and the “S at 36 min (plateau intensity)” value [6] was 2602.
`CN1c2ccccc2C(=C(OP(=O)([O-])[O-])Sc2ccccc2)c2ccccc21.[Na+].[Na+]` [Compound 5, 9-(Phenylthiophosphoryloxymethylidene)-10-methylacridan, disodium salt] was tested, and the “chemiluminescence on reaction with AP” value [1, 8] was “easily measurable blue chemiluminescence”, the “time to maximum chemiluminescence intensity” value [1, 8] was 2 min and the “time to maximum chemiluminescence intensity” value ([6]; 0.66 mM 5, 6.4 μM lucigenin, 1 mg/mL SDS, 0.01 mg/mL Na2SO3, 0.033% TWEEN 20, tris pH 8.8, 8×10^−16 mol AP, 25° C.) was 2 min. The “S at 36 min (plateau intensity)” value [6] was 34.7 and the “period for which emission could be imaged” value (AP-labeled antibody [7]) was “several hours”.
